Test results: patent publication US7601850B2, “Phenyl-thiophene type vitamin D receptor modulators” (Eli Lilly and Company, priority 2002, dated 2009)
Where two headings read alike, the source gives them in different places.

Key:
rat osteocalcin promoter = assay: OCN (osteocalcin) promoter assay in RG-15 (ROS 17/2.8) cells; assay type: cell-based
Summary of the method: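 Rat osteoblast-like RG-15 (ROS 17/2.8) cells stably carry the rat osteocalcin promoter fused to luciferase. They were treated with compounds for 48 h in medium with 2% FBS and 0.01% DMSO. EC50 was derived from luciferase activity in cell lysates.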

[1] = Mouse hypercalcemia assay (six day, serum ionized calcium); assay type: in vivo
Protocol: 5. The Mouse Hypercalcemia test is described in the “Assay” section of the Description, infra.
4. The Mouse Hypercalcemia Assay
The Mouse Hypercalcemia Assay is a six day hypercalcemia test for toxicity and selectivity. Acceptable test results are levels greater than 300 μg/kg/day. Preferred assay results are levels greater than 1000 μg/kg/day.
(4) Materials and Method for The Mouse Hypercalcemia Assay:
Weanling, virus-antibody-free, five to six weeks old female DBF mice (Harlan, Indianapolis, Ind.) are used for all the studies. Animals are allowed to acclimate to local vivarium conditions for 2 days. […] The animals then are divided into groups with 4-5 mice per group. Different doses of test compounds prepared in 10% Ethanol and 90% sesame oil are administered to mice orally via gavage for 6 days. 1α-25(OH)2D3 0.5 μg/kg/d was also given to one group of mice as the positive control. Serum ionized calcium is evaluated at 6 hours after the last dosing under isoflurane anesthesia by Ciba-Corning Ca++/PH Analyzer, (Model 634, Chiron Diagnostics Corp., East Walpole, Mass.). Raw data of group differences is assessed by analysis of variance (ANOVA) using Fisher's protected least significant difference (PLSD) where the significance level was P<0.05.

KERtr cells = assay: Keratinocyte proliferation assay (BrdU incorporation); assay type: cell-based; conditions: KERtr human skin keratinocytes, 72 hr treatment, read-out: Kera. Prolif. IC50
Protocol: 6. The keratinocyte proliferation assay is described in the “Assay” section of the Description, infra.
5. The Keratinocyte Proliferation Assay
This Assay is indicative for the treatment of psoriasis.
(5) The Keratinocyte Proliferation Assay:
KERtr cells (Human skin keratinocyte transformed with a retrovirus vector, obtained from ATCC) were plated in 96-well flat-bottomed plates (3000 cells/well) in 100 µl keratinocyte serum free medium supplemented with bovine pituitary extract in the absence of EGF (Life Technologies, Rockville, Md.) and incubated at 37° C. for two days. The cells were treated with various concentrations of VDR ligands (ten-fold serial dilution from 10,000 nM to 0.1 nM in triplicate), dissolved in 100 µl keratinocyte serum free medium supplemented with bovine pituitary extract in the absence of EGF and incubated at 37° C. for 72 hr. […] Potency values (IC50) values were determined as the concentration (nM) of compound that elicited a half-maximal response.

[2] = Homo sapiens, Keratinocyte, 72 h

Compound	EC50 (rat osteocalcin promoter) [nM]	Mouse Hypercal [1] [µg/kg/day]	IC50 (KERtr cells; [2]) [nM]	EC50 (rat osteocalcin promoter; Rattus norvegicus) [nM]	IC50 (KERtr cells) [nM]	Mouse Hypercal μg/Kg/d [1]
CCc1cc(C(CC)(CC)c2ccc(C(=O)O)s2)ccc1OCC(O)C(C)(C)C (single isomer, unassigned) [Ex. 100, 3′-[4-(2-hydroxy-3,3-dimethylbutoxy)-3-ethylphenyl]-3′-[5-carboxy-thiophen-2-yl]pentane]	5.63	3000	215	–	–	–
CCC(CC)(c1ccc(OCC(=O)O)c(C)c1)c1cc(C)c(CCC(O)C(C)(C)C)s1 (single isomer, unassigned) [Ex. 33B, 3′-[5-(3-hydroxy-4,4-dimethylpentyl)-4-methylthiophen-2-yl]-3′-[4-(carboxylmethoxy)-3-methylphenyl]pentane]	7.55	1000	22.5	–	–	–
CCCc1cc(C(CC)(CC)c2ccc(C(=O)O)s2)ccc1OCC(O)C(C)(C)C (stereo not drawn) [Ex. 93, 3′-[4-(2-hydroxy-3,3-dimethylbutoxy)-3-n-propylphenyl]-3′-[5-carboxy-thiophen-2-yl]pentane]	–	3000	178	38.5	–	–
CCC(CC)(c1ccc(OCC(O)C(C)(C)C)c(C)c1)c1cc(C)c(C(=O)NC(C)(C)C(=O)O)s1 (single isomer, unassigned) [Ex. 77, 2-[(5-{1-Ethyl-1-[4-(2-hydroxy-3,3-dimethyl-butoxy)-3-methyl-phenyl]-propyl}-3-methyl-thiophene-2-carbonyl)-amino]-2-methyl-propionic acid]	2	300	–	–	194	–
CCC(CC)(c1ccc(OCC(=O)C(C)(C)C)c(C)c1)c1ccc(OCC(=O)C(C)(C)C)c(C)c1 [DD, reference compound]	–	1000	1060	31.1	–	–
CCC(CC)(c1ccc(OCC(C)(O)C(C)(C)C)c(C)c1)c1ccc(C(=O)NCC(=O)O)s1 (single isomer, unassigned) [Ex. 106, 3′-[4-(2-hydroxy-2,3,3-trimethylbutoxy)-3-methylphenyl]-3′-[5-(carboxymethylamino)carbonyl-thiophen-2-yl]pentane]	–	–	13	8.05	–	>=1000 μg/Kg/d
CCC(CC)(c1ccc(OCC(O)C(C)(C)C)c(C)c1)c1cc(C)c(C(=O)NC(C)(C)C(=O)O)s1 (single isomer, unassigned) [Ex. 71, 2-[(5-{1-Ethyl-1-[4-(2-hydroxy-3,3-dimethyl-butoxy)-3-methyl-phenyl]-propyl}-3-methyl-thiophene-2-carbonyl)-amino]-2-methyl-propionic acid]	–	<300	–	3.5	29	–
